Data as given in US20260365670A1, “EGFR INHIBITORS AND USES THEREOF” (DIZAL (JIANGSU) PHARMACEUTICAL CO., LTD., priority 2022, published 2026).
Read-outs that look alike come from different tables or passages of the source.

How the values were obtained:
EGFR L858R/T790M = biological target: T1, EGFR L858R/T790M (Homo sapiens, UniProt P00533, L858R/T790M); experiment: Inhibition of EGFR L858R/T790M biochemical enzymatic activity (HTRF); conditions: EGFR L858R-T790M, 1 mM ATP, 1 h, room temperature, read-out: IC50 (nM) @L858R-T790M
T1 construct: purchased Carna Bio
Procedure, shortened: (§1)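 For IC50 determination by four-parameter logistic fit, EDTA-quenched 1 h room-temperature reactions (1 mM ATP, 1 μM TK Substrate-biotin) were read by HTRF. The 665/615 nm emission ratio after 320 nm excitation served as the activity signal.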

EGFR (C797S L858R) = biological target: T2, EGFR (C797S L858R) (Homo sapiens, UniProt P00533, C797S/L858R); experiment: Inhibition of EGFR (C797S L858R) biochemical enzymatic activity (HTRF); conditions: EGFR L858-C797S, 1 mM ATP, 1 h, room temperature, read-out: IC50 (nM) @L858-C797S
T2 construct: purchased signalchem
Procedure, shortened: as §1

EGFR wild type = biological target: T3, EGFR wild type (Homo sapiens, UniProt P00533); experiment: Inhibition of EGFR wild type biochemical enzymatic activity (HTRF); conditions: EGFR WT, 1 mM ATP, 1 h, room temperature, read-out: IC50 (nM) @WT
T3 construct: purchased Carna Bio
Procedure, shortened: as §1

EGFR Exon19Del = biological target: T4, EGFR Exon19Del (Homo sapiens, UniProt P00533, DEL746-750); experiment: Inhibition of EGFR Exon19Del biochemical enzymatic activity (HTRF); conditions: EGFR Del19, 1 mM ATP, 1 h, room temperature, read-out: IC50 @Del19
T4 construct: purchased Carna Bio
Procedure, shortened: as §1

EGFR (d746-750 C797S) = biological target: T5, EGFR (d746-750 C797S) (Homo sapiens, UniProt P00533, C797S/DEL746-750); experiment: Inhibition of EGFR (d746-750 C797S) biochemical enzymatic activity (HTRF); conditions: EGFR Del19-C797S, 1 mM ATP, 1 h, room temperature, read-out: IC50 (nM) @Del19-C797S
T5 construct: purchased signalchem
Procedure, shortened: as §1

[1] = test system: Ba/F3 cells expressing EGFR mutations; experiment: Cell proliferation assay, Ba/F3 cells expressing EGFR mutations (CellTiter-Glo, 72 hours); type: cell-based; conditions: Mus musculus, BaF3, 72 h, CellTiter-Glo
Procedure, shortened: (§2)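 Ba/F3 cells carrying EGFR mutants (5000/well) or PC-9 cells (500/well) in RPMI1640 were dosed with compound series after overnight attachment and grown 72 h. Viability read by CellTiter-Glo, with day-0 counts subtracted; GI50 from curve fits of % proliferation versus DMSO control.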

[2] = biological target: T6, EGFR[T790M/C797S/d746-750] (Homo sapiens, UniProt P00533, C797S/DEL746-750/T790M); experiment: Inhibition of EGFR[T790M/C797S/d746-750] biochemical enzymatic activity (HTRF); conditions: EGFR T790M-C797S-Del19, 1 mM ATP, 1 h, room temperature, read-out: IC50 (nM) @T790M - C797S - Del19
T6 construct: purchased Carna Bio
Procedure, shortened: as §1

EGFR[T790M/C797S/L858R] = biological target: T7, EGFR[T790M/C797S/L858R] (Homo sapiens, UniProt P00533, C797S/L858R/T790M); experiment: Inhibition of EGFR[T790M/C797S/L858R] biochemical enzymatic activity (HTRF); conditions: EGFR T790M-C797S-L858R, 1 mM ATP, 1 h, room temperature, read-out: IC50 (nM) @T790M- C797S - L858R
T7 construct: purchased Carna Bio
Procedure, shortened: as §1

EGFR L858R = biological target: T8, EGFR L858R (Homo sapiens, UniProt P00533, L858R); experiment: Inhibition of EGFR L858R biochemical enzymatic activity (HTRF); conditions: 1 mM ATP, 1 h, room temperature, read-out: IC50 (nM) @L858R
T8 construct: purchased Carna Bio
Procedure, shortened: as §1

EGFR Exon19Del/T790M = biological target: T9, EGFR Exon19Del/T790M (Homo sapiens, UniProt P00533, DEL746-750/T790M); experiment: Inhibition of EGFR Exon19Del/T790M biochemical enzymatic activity (HTRF); conditions: EGFR Del19-T790M, 1 mM ATP, 1 h, room temperature, read-out: IC50 (nM) @Del19-T790M
T9 construct: purchased Carna Bio
Procedure, shortened: as §1

A-431 = experiment: Cell proliferation GI50, A-431 cells (Table 6); type: cell-based; conditions: Homo sapiens, A-431, A-431 cells
PC-9 = experiment: Cell proliferation assay, PC-9 cells (CellTiter-Glo, 72 hours); type: cell-based; conditions: Homo sapiens, PC-9, 72 h, PC9 cells, CellTiter-Glo, read-out: PC9 GI50
Procedure, shortened: as §2

[3] = BaF3 cells, EGFR DEL19-C797S, read-out: DEL19-C797S/BaF3 GI50
[4] = BaF3 cells, EGFR DEL19-T790-C797S, read-out: DEL19-T790-C797S/BaF3 GI50
[5] = BaF3 cells, EGFR L858R, read-out: L858R/BaF3 GI50
[6] = BaF3 cells, EGFR L858R-C797S, read-out: L858R-C797S/BaF3 GI50
[7] = BaF3 cells, EGFR L858R-T790-C797S, read-out: L858R-T790-C797S/BaF3 GI50
[8] = BaF3 cells, EGFR L858R-T790M, read-out: L858R-T790M/BaF3 GI50
[9] = EGFR DEL19-T790M, read-out: DEL19-T790M GI50

T5 sequence (P00533 with tags, fused parts or gaps DEL746-750/C797S limits assumed): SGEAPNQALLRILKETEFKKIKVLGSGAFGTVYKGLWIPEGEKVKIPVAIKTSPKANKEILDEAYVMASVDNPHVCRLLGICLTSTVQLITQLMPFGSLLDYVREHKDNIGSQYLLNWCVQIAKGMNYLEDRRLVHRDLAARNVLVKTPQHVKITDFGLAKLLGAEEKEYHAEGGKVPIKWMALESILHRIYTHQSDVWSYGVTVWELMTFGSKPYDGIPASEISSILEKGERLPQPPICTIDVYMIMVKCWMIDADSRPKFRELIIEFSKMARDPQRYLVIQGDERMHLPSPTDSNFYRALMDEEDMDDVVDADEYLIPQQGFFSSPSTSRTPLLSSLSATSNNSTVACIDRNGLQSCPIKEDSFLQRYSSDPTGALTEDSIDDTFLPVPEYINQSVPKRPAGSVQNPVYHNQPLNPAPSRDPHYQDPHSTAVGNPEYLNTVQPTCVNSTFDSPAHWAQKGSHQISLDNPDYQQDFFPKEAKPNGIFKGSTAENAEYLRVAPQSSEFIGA
T3 sequence (P00533 25-1210): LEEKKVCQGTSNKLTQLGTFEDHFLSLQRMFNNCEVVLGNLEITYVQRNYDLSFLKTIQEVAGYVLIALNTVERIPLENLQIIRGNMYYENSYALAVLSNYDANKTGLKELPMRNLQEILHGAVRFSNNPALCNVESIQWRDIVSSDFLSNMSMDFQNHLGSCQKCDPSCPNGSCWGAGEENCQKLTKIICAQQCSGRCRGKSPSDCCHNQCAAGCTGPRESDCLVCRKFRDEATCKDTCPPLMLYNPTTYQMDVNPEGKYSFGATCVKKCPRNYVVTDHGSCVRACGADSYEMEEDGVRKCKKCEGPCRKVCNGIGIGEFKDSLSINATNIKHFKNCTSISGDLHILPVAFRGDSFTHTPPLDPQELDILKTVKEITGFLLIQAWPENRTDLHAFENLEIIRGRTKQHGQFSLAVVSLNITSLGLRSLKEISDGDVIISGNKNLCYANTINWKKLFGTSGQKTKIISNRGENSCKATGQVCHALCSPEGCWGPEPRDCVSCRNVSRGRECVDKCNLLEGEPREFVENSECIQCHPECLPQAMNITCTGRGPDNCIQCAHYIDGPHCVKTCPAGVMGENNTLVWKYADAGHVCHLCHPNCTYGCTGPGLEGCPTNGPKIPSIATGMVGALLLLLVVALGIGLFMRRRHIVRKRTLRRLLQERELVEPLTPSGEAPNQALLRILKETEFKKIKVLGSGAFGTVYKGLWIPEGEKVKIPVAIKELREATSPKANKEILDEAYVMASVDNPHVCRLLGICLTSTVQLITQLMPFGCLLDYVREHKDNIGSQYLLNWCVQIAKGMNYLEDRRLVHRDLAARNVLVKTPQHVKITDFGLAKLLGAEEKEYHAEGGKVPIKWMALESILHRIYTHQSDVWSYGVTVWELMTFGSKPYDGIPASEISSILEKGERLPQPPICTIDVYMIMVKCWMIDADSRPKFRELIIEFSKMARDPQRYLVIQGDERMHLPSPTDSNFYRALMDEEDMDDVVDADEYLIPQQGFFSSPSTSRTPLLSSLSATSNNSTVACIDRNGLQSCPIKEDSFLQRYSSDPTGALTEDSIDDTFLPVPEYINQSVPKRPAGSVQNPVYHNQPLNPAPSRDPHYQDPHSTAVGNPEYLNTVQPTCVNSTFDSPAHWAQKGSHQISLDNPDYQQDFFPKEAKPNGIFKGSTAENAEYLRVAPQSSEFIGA
T8 sequence (P00533 25-1210 L858R): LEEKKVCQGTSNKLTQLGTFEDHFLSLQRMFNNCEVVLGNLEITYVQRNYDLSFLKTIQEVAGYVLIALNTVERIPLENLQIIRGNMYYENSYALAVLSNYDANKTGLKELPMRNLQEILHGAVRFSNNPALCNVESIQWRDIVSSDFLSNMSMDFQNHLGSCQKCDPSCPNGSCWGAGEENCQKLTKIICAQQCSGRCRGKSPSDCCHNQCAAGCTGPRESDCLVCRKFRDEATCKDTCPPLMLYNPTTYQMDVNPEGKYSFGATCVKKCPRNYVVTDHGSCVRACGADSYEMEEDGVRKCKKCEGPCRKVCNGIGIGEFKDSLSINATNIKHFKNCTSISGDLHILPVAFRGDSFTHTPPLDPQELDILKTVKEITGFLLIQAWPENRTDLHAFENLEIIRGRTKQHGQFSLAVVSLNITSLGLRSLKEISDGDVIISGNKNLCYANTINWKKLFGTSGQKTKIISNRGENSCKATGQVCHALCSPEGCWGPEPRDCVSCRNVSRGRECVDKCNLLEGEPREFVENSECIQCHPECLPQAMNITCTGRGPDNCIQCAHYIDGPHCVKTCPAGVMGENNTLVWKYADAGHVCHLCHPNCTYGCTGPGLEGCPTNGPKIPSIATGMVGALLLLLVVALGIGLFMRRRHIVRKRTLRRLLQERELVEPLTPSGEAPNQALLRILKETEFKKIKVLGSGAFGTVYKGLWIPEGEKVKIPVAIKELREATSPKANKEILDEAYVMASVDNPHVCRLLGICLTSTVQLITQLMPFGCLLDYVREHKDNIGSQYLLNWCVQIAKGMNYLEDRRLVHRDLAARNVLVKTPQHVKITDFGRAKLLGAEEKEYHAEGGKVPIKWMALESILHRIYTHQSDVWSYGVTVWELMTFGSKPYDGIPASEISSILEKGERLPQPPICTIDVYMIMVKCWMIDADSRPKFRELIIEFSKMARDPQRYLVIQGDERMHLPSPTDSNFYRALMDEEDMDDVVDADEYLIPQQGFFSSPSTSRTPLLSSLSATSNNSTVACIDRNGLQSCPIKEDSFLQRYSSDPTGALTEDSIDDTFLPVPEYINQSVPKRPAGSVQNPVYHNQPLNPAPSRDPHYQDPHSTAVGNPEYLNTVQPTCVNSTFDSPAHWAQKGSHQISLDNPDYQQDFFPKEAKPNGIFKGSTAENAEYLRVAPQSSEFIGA
T9 sequence (P00533 with tags, fused parts or gaps DEL746-750/T790M limits assumed): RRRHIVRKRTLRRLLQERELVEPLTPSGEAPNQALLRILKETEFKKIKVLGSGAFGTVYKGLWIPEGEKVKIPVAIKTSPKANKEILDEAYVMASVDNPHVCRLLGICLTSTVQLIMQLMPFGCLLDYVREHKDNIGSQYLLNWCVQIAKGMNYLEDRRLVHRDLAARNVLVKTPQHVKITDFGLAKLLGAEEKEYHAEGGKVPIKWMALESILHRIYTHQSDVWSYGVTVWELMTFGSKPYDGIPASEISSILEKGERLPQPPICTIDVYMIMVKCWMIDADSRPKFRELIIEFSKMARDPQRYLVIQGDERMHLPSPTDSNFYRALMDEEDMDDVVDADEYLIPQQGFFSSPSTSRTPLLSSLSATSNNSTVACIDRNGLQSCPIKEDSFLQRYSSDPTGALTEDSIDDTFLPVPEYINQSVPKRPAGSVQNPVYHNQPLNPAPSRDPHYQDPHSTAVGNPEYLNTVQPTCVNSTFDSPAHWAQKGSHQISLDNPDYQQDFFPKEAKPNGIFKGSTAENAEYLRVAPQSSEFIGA
T6 sequence (P00533 with tags, fused parts or gaps DEL746-750/T790M/C797S limits assumed): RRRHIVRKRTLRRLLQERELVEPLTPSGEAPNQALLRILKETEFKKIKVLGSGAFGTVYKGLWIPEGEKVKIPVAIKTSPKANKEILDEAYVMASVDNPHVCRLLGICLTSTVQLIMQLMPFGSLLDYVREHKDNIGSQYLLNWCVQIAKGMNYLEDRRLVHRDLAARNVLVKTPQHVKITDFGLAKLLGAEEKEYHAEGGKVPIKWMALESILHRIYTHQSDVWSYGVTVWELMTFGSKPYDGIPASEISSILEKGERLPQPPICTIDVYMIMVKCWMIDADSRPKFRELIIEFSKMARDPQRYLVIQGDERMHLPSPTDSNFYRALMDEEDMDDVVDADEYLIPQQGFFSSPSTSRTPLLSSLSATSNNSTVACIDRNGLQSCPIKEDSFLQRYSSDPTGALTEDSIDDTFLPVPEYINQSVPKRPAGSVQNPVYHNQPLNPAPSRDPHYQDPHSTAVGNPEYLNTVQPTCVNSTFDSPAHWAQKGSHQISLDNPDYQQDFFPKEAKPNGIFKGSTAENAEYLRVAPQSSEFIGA
T4 sequence (P00533 with tags, fused parts or gaps DEL746-750 limits assumed): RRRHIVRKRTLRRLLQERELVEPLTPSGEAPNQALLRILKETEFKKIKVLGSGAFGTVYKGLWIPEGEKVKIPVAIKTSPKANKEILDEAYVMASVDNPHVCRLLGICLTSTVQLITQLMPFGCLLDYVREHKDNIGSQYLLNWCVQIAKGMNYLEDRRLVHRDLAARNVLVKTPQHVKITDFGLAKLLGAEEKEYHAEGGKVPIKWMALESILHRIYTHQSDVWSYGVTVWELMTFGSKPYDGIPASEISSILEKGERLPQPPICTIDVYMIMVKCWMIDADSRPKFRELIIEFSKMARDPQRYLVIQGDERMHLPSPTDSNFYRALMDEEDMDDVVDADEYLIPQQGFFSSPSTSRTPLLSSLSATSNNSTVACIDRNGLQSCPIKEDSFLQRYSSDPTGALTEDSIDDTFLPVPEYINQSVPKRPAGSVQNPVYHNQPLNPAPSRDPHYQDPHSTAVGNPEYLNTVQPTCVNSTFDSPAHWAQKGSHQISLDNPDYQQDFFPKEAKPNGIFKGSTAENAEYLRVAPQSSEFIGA

Compound	IC50 (EGFR L858R/T790M) [nM]	IC50 (EGFR (C797S L858R)) [nM]	IC50 (EGFR wild type) [nM]	IC50 (EGFR Exon19Del) [nM]	IC50 (EGFR (d746-750 C797S)) [nM]	GI50 [1, 3] [nM]	GI50 [1, 4] [nM]	GI50 [1, 5] [nM]	GI50 [1, 6] [nM]	GI50 [1, 7] [nM]	GI50 [1, 8] [nM]	GI50 [1, 9] [nM]	IC50 [2] [nM]	IC50 (EGFR[T790M/C797S/L858R]) [nM]	IC50 (EGFR L858R) [nM]	IC50 (EGFR Exon19Del/T790M) [nM]	GI50 (A-431) [nM]	GI50 (PC-9) [nM]
C[C@@H]1CCCOc2c(cnn2C)-c2cc(cn(C)c2=O)C(=O)Nc2nc3ccc(N4CCC5(CN(C)C5)C4)cc3n2C1 [Example A43]	13	8.9	295	4.5	2.2	1	3.6	2.6	3.4	2.5	9.5	5.2	4.4	7.1	21	3.7	508	5.7
C[C@@H]1CCCOc2c(cnn2C)-c2cc(cn(C)c2=O)C(=O)Nc2nc3ccc(Br)cc3n2C1 [Example M3, (11R)-16-Bromo-5,11,26-trimethyl-7-oxa-4,5,13,20,22,26-hexaazapentacyclo[22.3.1.0^{2,6}.0^{13,21}.0^{14,19}]octacosa-1(28),2(6),3,14,16,18,20,24-octaene-23,27-dione]	2190	1700	> 5000	204	60	89	364	257	344	159	982	300	19	2470	2460	27	1950	252
C[C@@H]1CCCOc2c(cnn2C)-c2cc(cn(C)c2=O)C(=O)Nc2nc3ccc(N4CC5(CN(C)CCO5)C4)cc3n2C1 [Example A47]	9.5	20	1130	4.5	2.5	1.7	9.7	4	3.2	3.4	17	12	4.2	4.9	46	4.2	200	7
C[C@@H]1CCCOc2c(cnn2C)-c2cc(cn(C)c2=O)C(=O)Nc2nc3ccc(N4CCNCC4)c(Cl)c3n2C1 [Example A23, (11R)-15-chloro-5,11,26-trimethyl-16-(piperazin-1-yl)-7-oxa-4,5,13,20,22,26-hexaazapentacyclo[22.3.1.0^{2,6}.0^{13,21}.0^{14,19}]octacosa-1(28),2(6),3,14,16,18,20,24-octaene-23,27-dione]	12	61	> 5000	4.7	3	4	11	104	32	12	151	10	2.7	2.7	207	3	2820	208
